# Results published in US20170000133A1, “BENZOXABOROLE FUNGICIDES” (SYNGENTA PARTICIPATIONS AG, priority 2013, published 2017).
# System: not given
# Test: not given
# Settings: not given
row,SMILES,melting point
1,CON(C)C(=O)c1cc2c(cc1F)COB2O [Compound 51],144 to 146 °C
2,COC(CNC(=O)c1cc2c(cc1F)COB2O)OC [Compound 53],150 to 152 °C
3,COC(CNC(=O)c1ccc2c(c1)B(O)OC2)OC [Compound 242],148 to 150 °C
4,O=C(OCCO)c1cc2c(cc1F)COB2O [Compound 243],274 to 276 °C
5,O=C(OCCO)c1ccc2c(c1)B(O)OC2 [Compound 244],122 to 124 °C
6,COC(CNC(=O)c1cc2c(cc1Cl)COB2O)OC [Compound 435],150 to 152 °C
7,NC(=O)c1cc2c(cc1F)COB2O [Compound 436],216 to 218 °C
8,O=C(OCCO)c1cc2c(cc1Cl)COB2O [Compound 440],270 to 272 °C
9,O=C(Oc1ccccn1)c1cc2c(cc1F)COB2O [Compound 442],213 to 215 °C
10,COC(COC(=O)c1ccc2c(c1)B(O)OC2)OC [Compound 443],110 to 112 °C
11,COC(COC(=O)c1cc2c(cc1F)COB2O)OC [Compound 444],109 to 111 °C
12,CC(=O)C(C)OC(=O)c1cc2c(cc1F)COB2O (stereo not shown) [Compound 445],108 to 110 °C
13,CC(=O)C(C)OC(=O)c1ccc2c(c1)B(O)OC2 (stereo not shown) [Compound 447],110 to 112 °C
14,CC(=O)COC(=O)c1cc2c(cc1F)COB2O [Compound 448],122 to 124 °C
15,CC(=O)COC(=O)c1cc2c(cc1Cl)COB2O [Compound 450],134 to 136 °C

# System: Thanatephorus cucumeris (Rhizoctonia solani)
# Test: Thanatephorus cucumeris (Rhizoctonia solani) / liquid culture (foot rot, damping-off)
# Format: cell-based
# Settings: PDB potato dextrose broth, 24° C., 3-4 days after application, read-out: disease control (inhibition of growth determined photometrically)
# Outline: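 Photometric growth-inhibition readout taken 3-4 days after application, with cultures incubated at 24 °C. Test compound was applied at 200 ppm from DMSO solution to R. solani mycelial fragments in PDB.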
row,SMILES,inhibition at 200 ppm
1,O=C(Oc1ccccn1)c1cc2c(cc1F)COB2O [Compound 442],≥ 80%

# System: Pythium ultimum
# Test: Pythium ultimum / liquid culture (seedling damping off)
# Format: cell-based
# Settings: Globisporangium ultimum; 200 ppm; potato dextrose broth, 24° C., 2-3 days after application; read-out: disease control (inhibition of growth determined photometrically)
row,SMILES,inhibition at 200 ppm
1,CON(C)C(=O)c1cc2c(cc1F)COB2O [Compound 51],≥ 80%
2,COC(CNC(=O)c1cc2c(cc1F)COB2O)OC [Compound 53],≥ 80%
3,COC(CNC(=O)c1ccc2c(c1)B(O)OC2)OC [Compound 242],≥ 80%
4,O=C(OCCO)c1cc2c(cc1F)COB2O [Compound 243],≥ 80%
5,O=C(OCCO)c1ccc2c(c1)B(O)OC2 [Compound 244],≥ 80%
6,NC(=O)c1cc2c(cc1F)COB2O [Compound 436],≥ 80%
7,O=C(OCCO)c1cc2c(cc1Cl)COB2O [Compound 440],≥ 80%
8,O=C(Oc1ccccn1)c1cc2c(cc1F)COB2O [Compound 442],≥ 80%
9,COC(COC(=O)c1ccc2c(c1)B(O)OC2)OC [Compound 443],≥ 80%
10,COC(COC(=O)c1cc2c(cc1F)COB2O)OC [Compound 444],≥ 80%
11,CC(=O)C(C)OC(=O)c1cc2c(cc1F)COB2O (stereo not shown) [Compound 445],≥ 80%
12,CC(=O)C(C)OC(=O)c1ccc2c(c1)B(O)OC2 (stereo not shown) [Compound 447],≥ 80%
13,CC(=O)COC(=O)c1cc2c(cc1F)COB2O [Compound 448],≥ 80%
14,CC(=O)COC(=O)c1cc2c(cc1Cl)COB2O [Compound 450],≥ 80%

# System: Gaeumannomyces graminis
# Test: Gaeumannomyces graminis / liquid culture (take-all of cereals)
# Format: cell-based
# Settings: PDB potato dextrose broth, 24° C., 4-5 days after application, read-out: disease control (inhibition of growth determined photometrically)
# Outline: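 Growth inhibition measured photometrically 4–5 days post-application, following incubation at 24 °C. Test compound, applied from DMSO at 200 ppm, mixed with fungal mycelial fragments in potato dextrose broth.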
row,SMILES,inhibition at 200 ppm
1,CC(=O)C(C)OC(=O)c1ccc2c(c1)B(O)OC2 (stereo not shown) [Compound 447],≥ 80%
2,CC(=O)COC(=O)c1cc2c(cc1Cl)COB2O [Compound 450],≥ 80%

# System: Monographella nivalis (Microdochium nivale)
# Test: Monographella nivalis (Microdochium nivale) / liquid culture (foot rot cereals)
# Format: cell-based
# Settings: PDB potato dextrose broth, 24° C., 4-5 days after application, read-out: disease control (inhibition of growth determined photometrically)
row,SMILES,inhibition at 200 ppm
1,O=C(OCCO)c1ccc2c(c1)B(O)OC2 [Compound 244],≥ 80%
2,O=C(Oc1ccccn1)c1cc2c(cc1F)COB2O [Compound 442],≥ 80%
3,CC(=O)C(C)OC(=O)c1ccc2c(c1)B(O)OC2 (stereo not shown) [Compound 447],≥ 80%
4,CC(=O)COC(=O)c1cc2c(cc1F)COB2O [Compound 448],≥ 80%

# System: Plasmopara viticola
# Test: whole plant or invertebrate
# Format: in vivo
# Settings: foliar, read-out: disease control
row,SMILES,pest or weed control at 200 ppm
1,CC(=O)COC(=O)c1cc2c(cc1Cl)COB2O [Compound 450],≥ 80%
